Data from the CheMixHub viscosity set.
± gives the uncertainty stated by the source.

Assay: xn = mol fraction of the nth substance listed

COCCOCCOCCOC + ClCCl
298.15 K, 101 kPa
Conditions	viscosity [mPa·s]
x1 = 0.0122	0.436 ± 0.011
x1 = 0.0214	0.451 ± 0.011
x1 = 0.043	0.496 ± 0.012
x1 = 0.0736	0.575 ± 0.013
x1 = 0.1008	0.621 ± 0.013
x1 = 0.159	0.752 ± 0.015
x1 = 0.2062	0.868 ± 0.017
x1 = 0.2482	0.96 ± 0.019
x1 = 0.3121	1.078 ± 0.02
x1 = 0.3987	1.247 ± 0.023
x1 = 0.4705	1.371 ± 0.025
x1 = 0.5389	1.476 ± 0.027
x1 = 0.5879	1.549 ± 0.028
x1 = 0.6389	1.645 ± 0.03
x1 = 0.6782	1.669 ± 0.03
x1 = 0.7651	1.787 ± 0.032
x1 = 0.803	1.823 ± 0.033
x1 = 0.8785	1.897 ± 0.034
x1 = 0.9474	1.92 ± 0.035

CCCCOC(=O)c1ccccc1 + CCCCCCCC
101 kPa
Conditions	viscosity [mPa·s]
298.15 K, x2 = 0.0819	2.313 ± 0.073
298.15 K, x2 = 0.1257	2.139 ± 0.067
298.15 K, x2 = 0.1681	1.973 ± 0.062
298.15 K, x2 = 0.2263	1.771 ± 0.056
298.15 K, x2 = 0.2749	1.61 ± 0.051
298.15 K, x2 = 0.3195	1.476 ± 0.047
298.15 K, x2 = 0.3719	1.339 ± 0.042
298.15 K, x2 = 0.4121	1.246 ± 0.039
298.15 K, x2 = 0.473	1.117 ± 0.035
298.15 K, x2 = 0.5153	1.038 ± 0.033
298.15 K, x2 = 0.5596	0.971 ± 0.031
298.15 K, x2 = 0.6051	0.9 ± 0.029
298.15 K, x2 = 0.6559	0.827 ± 0.026
298.15 K, x2 = 0.7053	0.772 ± 0.025
298.15 K, x2 = 0.7427	0.729 ± 0.023
298.15 K, x2 = 0.794	0.674 ± 0.021
298.15 K, x2 = 0.8349	0.635 ± 0.02
298.15 K, x2 = 0.8859	0.591 ± 0.019
298.15 K, x2 = 0.9357	0.552 ± 0.018
308.15 K, x2 = 0.0945	1.866 ± 0.059
308.15 K, x2 = 0.1325	1.737 ± 0.055
308.15 K, x2 = 0.1853	1.579 ± 0.05
308.15 K, x2 = 0.2276	1.465 ± 0.046
308.15 K, x2 = 0.2687	1.364 ± 0.043
308.15 K, x2 = 0.3288	1.233 ± 0.039
308.15 K, x2 = 0.3769	1.139 ± 0.036
308.15 K, x2 = 0.4139	1.073 ± 0.034
308.15 K, x2 = 0.4741	0.975 ± 0.031
308.15 K, x2 = 0.5134	0.916 ± 0.029
308.15 K, x2 = 0.5651	0.848 ± 0.027
308.15 K, x2 = 0.6054	0.797 ± 0.025
308.15 K, x2 = 0.6525	0.743 ± 0.024
308.15 K, x2 = 0.7052	0.688 ± 0.022
308.15 K, x2 = 0.7478	0.649 ± 0.021
308.15 K, x2 = 0.7925	0.61 ± 0.019
308.15 K, x2 = 0.8351	0.577 ± 0.018
308.15 K, x2 = 0.8734	0.549 ± 0.018
308.15 K, x2 = 0.9291	0.514 ± 0.016
318.15 K, x2 = 0.0361	1.714 ± 0.054
318.15 K, x2 = 0.0929	1.554 ± 0.049
318.15 K, x2 = 0.1407	1.438 ± 0.045
318.15 K, x2 = 0.196	1.309 ± 0.041
318.15 K, x2 = 0.2419	1.215 ± 0.038
318.15 K, x2 = 0.2984	1.108 ± 0.035
318.15 K, x2 = 0.346	1.027 ± 0.032
318.15 K, x2 = 0.4006	0.943 ± 0.03
318.15 K, x2 = 0.4467	0.878 ± 0.028
318.15 K, x2 = 0.499	0.812 ± 0.026
318.15 K, x2 = 0.5446	0.759 ± 0.024
318.15 K, x2 = 0.5955	0.706 ± 0.022
318.15 K, x2 = 0.6382	0.665 ± 0.021
318.15 K, x2 = 0.6905	0.619 ± 0.02
318.15 K, x2 = 0.7358	0.584 ± 0.019
318.15 K, x2 = 0.7849	0.546 ± 0.017
318.15 K, x2 = 0.8274	0.518 ± 0.017
318.15 K, x2 = 0.8768	0.488 ± 0.016
318.15 K, x2 = 0.9193	0.464 ± 0.015

Nc1ccccc1 + CC(C)CO
303 K, 101.33 kPa
Conditions	viscosity [mPa·s]
x1 = 0.1	2.305 ± 0.24
x1 = 0.2	2.138 ± 0.22
x1 = 0.3	2.096 ± 0.22
x1 = 0.4	2.047 ± 0.21
x1 = 0.5	2.073 ± 0.21
x1 = 0.6	2.172 ± 0.23
x1 = 0.7	2.284 ± 0.24
x1 = 0.8	2.366 ± 0.24
x1 = 0.9	2.715 ± 0.28

CC(C)C=O + CCCCO
100 kPa
Conditions	viscosity [mPa·s]
294.4 K, x1 = 0.76	8.02 ± 0.11
296.4 K, x1 = 0.6	13.17 ± 0.18
296.9 K, x1 = 0.9	5.36 ± 0.08
314.5 K, x1 = 0.6	8.56 ± 0.12

CC(C)(C)O + c1ccccc1
Conditions	viscosity [mPa·s]
298.15 K, 101 kPa, x1 = 0.0105	0.5986 ± 0.016
298.15 K, 101 kPa, x1 = 0.02032	0.5966 ± 0.016
298.15 K, 101 kPa, x1 = 0.02705	0.5958 ± 0.016
298.15 K, 101 kPa, x1 = 0.03393	0.5954 ± 0.016
298.15 K, 101 kPa, x1 = 0.04376	0.5954 ± 0.016
298.15 K, 101 kPa, x1 = 0.05002	0.5954 ± 0.016
298.15 K, 101 kPa, x1 = 0.06281	0.5966 ± 0.016
298.15 K, 101 kPa, x1 = 0.07569	0.598 ± 0.016
298.15 K, 101 kPa, x1 = 0.08395	0.5995 ± 0.016
298.15 K, 101 kPa, x1 = 0.1597	0.6201 ± 0.016
298.15 K, 101 kPa, x1 = 0.2472	0.6577 ± 0.017
298.15 K, 101 kPa, x1 = 0.5139	0.886 ± 0.023
298.15 K, 101 kPa, x1 = 0.9027	2.579 ± 0.068
303 K, 101.3 kPa, x2 = 0.1001	2.487 ± 0.072
303 K, 101.3 kPa, x2 = 0.2137	1.787 ± 0.057
303 K, 101.3 kPa, x2 = 0.3033	1.395 ± 0.049
303 K, 101.3 kPa, x2 = 0.4117	1.08 ± 0.044
303 K, 101.3 kPa, x2 = 0.5129	0.8736 ± 0.041
303 K, 101.3 kPa, x2 = 0.6126	0.7351 ± 0.039
303 K, 101.3 kPa, x2 = 0.7187	0.6441 ± 0.038
303 K, 101.3 kPa, x2 = 0.8046	0.6103 ± 0.037
303 K, 101.3 kPa, x2 = 0.8998	0.5822 ± 0.037
303.2 K, 101.33 kPa, x2 = 0.05	2.528 ± 0.017
303.2 K, 101.33 kPa, x2 = 0.1	1.968 ± 0.013
303.2 K, 101.33 kPa, x2 = 0.15	1.598 ± 0.011
303.2 K, 101.33 kPa, x2 = 0.2	1.356 ± 0.009
303.2 K, 101.33 kPa, x2 = 0.3	1.06 ± 0.007
303.2 K, 101.33 kPa, x2 = 0.4	0.87 ± 0.006
303.2 K, 101.33 kPa, x2 = 0.5	0.753 ± 0.005
303.2 K, 101.33 kPa, x2 = 0.6	0.671 ± 0.005
303.2 K, 101.33 kPa, x2 = 0.7	0.609 ± 0.004
303.2 K, 101.33 kPa, x2 = 0.8	0.57 ± 0.004
303.2 K, 101.33 kPa, x2 = 0.85	0.559 ± 0.004
303.2 K, 101.33 kPa, x2 = 0.9	0.553 ± 0.004
303.2 K, 101.33 kPa, x2 = 0.95	0.552 ± 0.004

CCNCC + CCC(C)=O
298.15 K, 101 kPa
Conditions	viscosity [mPa·s]
x2 = 0.1013	0.273 ± 0.002
x2 = 0.2023	0.279 ± 0.002
x2 = 0.303	0.283 ± 0.002
x2 = 0.4034	0.287 ± 0.002
x2 = 0.5035	0.293 ± 0.002
x2 = 0.6034	0.3 ± 0.003
x2 = 0.703	0.313 ± 0.003
x2 = 0.8023	0.331 ± 0.003
x2 = 0.9013	0.353 ± 0.003

COCCOCCOCCO + CCCO
viscosity [mPa·s], 101 kPa
Conditions	298.15 K	308.15 K	318.15 K
x1 = 0.0134	1.952 ± 0.031	1.526 ± 0.025	1.246 ± 0.02
x1 = 0.0366	1.983 ± 0.031	1.555 ± 0.025	1.273 ± 0.021
x1 = 0.0639	2.034 ± 0.032	1.604 ± 0.026	1.32 ± 0.022
x1 = 0.1165	2.159 ± 0.034	1.692 ± 0.027	1.4 ± 0.023
x1 = 0.1568	2.273 ± 0.036	1.786 ± 0.029	1.484 ± 0.024
x1 = 0.2037	2.434 ± 0.039	1.894 ± 0.031	1.576 ± 0.026
x1 = 0.2664	2.652 ± 0.043	2.064 ± 0.034	1.715 ± 0.028
x1 = 0.3205	2.847 ± 0.047	2.213 ± 0.037	1.851 ± 0.031
x1 = 0.3498	3.007 ± 0.05	2.328 ± 0.039	1.927 ± 0.033
x1 = 0.3669	3.042 ± 0.051	2.349 ± 0.04	1.973 ± 0.033
x1 = 0.4076	3.264 ± 0.055	2.495 ± 0.043	2.085 ± 0.036
x1 = 0.4623	3.514 ± 0.06	2.678 ± 0.047	2.228 ± 0.039
x1 = 0.5601	4 ± 0.071	3.021 ± 0.054	2.51 ± 0.045
x1 = 0.6022	4.21 ± 0.076	3.158 ± 0.058	2.624 ± 0.048
x1 = 0.6441	4.433 ± 0.081	3.312 ± 0.061	2.741 ± 0.05
x1 = 0.7071	4.778 ± 0.09	3.545 ± 0.067	2.921 ± 0.055
x1 = 0.7635	5.059 ± 0.097	3.746 ± 0.073	3.074 ± 0.059
x1 = 0.8228	5.311 ± 0.1	3.929 ± 0.078	3.238 ± 0.064
x1 = 0.8494	5.452 ± 0.11	4.008 ± 0.08	3.312 ± 0.066
x1 = 0.9137	5.74 ± 0.12	4.23 ± 0.087	3.489 ± 0.071
x1 = 0.9358	5.875 ± 0.12	4.299 ± 0.089	3.55 ± 0.073
x1 = 0.961	6.08 ± 0.12	4.384 ± 0.092	3.616 ± 0.075
